We go through one molecule from US6858434B1, “Method for synthesis, separation and screening of a plurality of compounds in the same bulk of a stationary phase” (Sinvent AS, priority 1999, dated 2005).

For this assay, the system named is Serracia marcescens. The experiment in a line: agar overlay screening for antimicrobial activity on the TLC plate. It is filed as cell-based. As to conditions: agar gel containing Serracia marcescens poured over the TLC plate, left overnight at room temperature.

SMILES strings stand for the structures.

Take `c1ccc(CN2CCCC2)cc1` [product]: the “antibacterial activity (white inhibition zones around the spot)” value is reported as “antibacterial activity”.
